Measurements published in patent US9404081B2, “Pyruvate kinase activators for use in therapy” (AGIOS PHARMACEUTICALS, INC., priority 2011, dated 2016).

Tests used:
Assay type in all cases: biochemical
PKR wt = PKR wt (Homo sapiens, UniProt P30613); assay: PKR WT Single Point Percent Activation Assay
Summary of the method: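 Single concentration of 1 μM compound preincubated 60 min at RT with PKR wt (100 ng/well) in Tris pH 7.5, KCl, MgCl2, DTT, BSA. Reaction started with ADP (0.48 mM final) with PEP 0.15 mM, coupled LDH/NADH (180 μM), read at OD340, room temperature; given as percent activation.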

PKR R532W = PKR R532W (Homo sapiens, UniProt P30613, R532W); assay: PKR R532W Single Point Percent Activation Assay; conditions: for activation at 1 µM: read-out: Act, % 532W
Chain of PKR R532W (P30613 whole entry R532W): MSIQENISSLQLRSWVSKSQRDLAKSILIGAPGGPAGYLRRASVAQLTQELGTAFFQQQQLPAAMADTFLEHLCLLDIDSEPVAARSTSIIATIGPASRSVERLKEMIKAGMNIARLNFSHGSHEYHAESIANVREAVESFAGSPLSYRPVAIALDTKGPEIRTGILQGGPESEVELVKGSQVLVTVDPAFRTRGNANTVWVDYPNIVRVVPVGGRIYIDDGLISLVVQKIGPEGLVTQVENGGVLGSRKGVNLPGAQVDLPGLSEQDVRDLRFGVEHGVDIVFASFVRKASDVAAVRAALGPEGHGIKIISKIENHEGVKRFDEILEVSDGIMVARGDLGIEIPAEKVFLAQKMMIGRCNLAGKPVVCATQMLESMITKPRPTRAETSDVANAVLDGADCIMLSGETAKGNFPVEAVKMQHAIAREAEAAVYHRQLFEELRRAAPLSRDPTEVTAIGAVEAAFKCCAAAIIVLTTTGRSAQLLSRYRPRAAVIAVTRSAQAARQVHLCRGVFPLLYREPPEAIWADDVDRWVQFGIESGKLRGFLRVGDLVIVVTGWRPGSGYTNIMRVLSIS
Summary of the method: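 PKR R532W (100 ng/well) preincubated 60 min at RT with compound at 1 μM in Tris pH 7.5, KCl, MgCl2, DTT, BSA. Reaction started with ADP (0.36 mM), with PEP 0.1 mM, NADH 180 μM and LDH coupling; read at OD340, room temperature.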

PKR R510Q = PKR R510Q (Homo sapiens, UniProt P30613, R510Q); assay: PKR R510Q Single Point Percent Activation Assay; conditions: read-out: Act. % 510Q
Chain of PKR R510Q (P30613 whole entry R510Q): as the sequence (P30613 whole entry R532W) above, with R510Q, W532R counted along it
Summary of the method: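 Test compound was used at a single concentration of 1 μM and preincubated 60 min at room temperature with PKR R510Q (40 ng/well). The buffer was 50 mM Tris pH 7.5, 100 mM KCl, 5 mM MgCl2, 1 mM DTT and 0.03% BSA. The reaction was started with 0.2 mM ADP and read as OD340 in an LDH-coupled system (0.11 mM PEP, 180 μM NADH).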

PKR T384W = PKR T384W (Homo sapiens, UniProt P30613, T384W); assay: PKR T384W Single Point Percent Activation Assay; conditions: read-out: Act. % 384W
Chain of PKR T384W (P30613 whole entry T384W): as the sequence (P30613 whole entry R532W) above, with T384W, W532R counted along it
Summary of the method: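 Soluble PKR T384W (300 ng/well) preincubated 60 min at RT with 1 μM compound in 50 mM Tris pH 7.5, 100 mM KCl, 5 mM MgCl2, 1 mM DTT, 0.03% BSA. Started with ADP (0.08 mM); PEP 0.23 mM, LDH-coupled NADH (180 μM) consumption read at OD340, room temperature.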

Chain of PKR wt (P30613 whole entry): as the sequence (P30613 whole entry R532W) above, with W532R counted along it

| SMILES | activation at 1 µM (PKR wt) | activation at 1 µM (PKR R532W) | activation at 1 µM (PKR R510Q) | activation at 1 µM (PKR T384W) | Act, % 532W (PKR R532W; % activation at 1 μM) |
| --- | --- | --- | --- | --- | --- |
| C[C@@H]1CN(C(=O)c2ccc(NS(=O)(=O)c3cccc4cccnc34)cc2)CCN1Cc1ccccc1 | 101 to 500% | 101 to 500% | 101 to 500% | 101 to 500% | – |
| C[C@@H]1CN(C(=O)OC2CCCOC2)CCN1C(=O)c1ccc(NS(=O)(=O)c2cccc3cccnc23)cc1 (stereo partly drawn) | 101 to 500% | 101 to 500% | 101 to 500% | 101 to 500% | – |
| C[C@@H]1CN(C(=O)OCC2CCCO2)CCN1C(=O)c1ccc(NS(=O)(=O)c2cccc3cccnc23)cc1 (stereo partly drawn) | 101 to 500% | 1 to 100% | 1 to 100% | 1 to 100% | – |
| C[C@@H]1CN(C(=O)OC2CCCC2)CCN1C(=O)c1ccc(NS(=O)(=O)c2cccc3cccnc23)cc1 | 101 to 500% | 101 to 500% | 101 to 500% | 101 to 500% | – |
| COc1cccc(CN2CCN(C(=O)c3ccc(NS(=O)(=O)c4cccc5cccnc45)cc3)[C@H](C)C2)c1OC | 101 to 500% | 101 to 500% | 1 to 100% | 101 to 500% | – |
| C[C@@H]1CN(Cc2ccc(F)cc2)CCN1C(=O)c1ccc(NS(=O)(=O)c2cccc3cccnc23)cc1 | 101 to 500% | 101 to 500% | 1 to 100% | 101 to 500% | – |
| C[C@@H]1CN(Cc2c(F)ccc(F)c2F)CCN1C(=O)c1ccc(NS(=O)(=O)c2cccc3cccnc23)cc1 | 101 to 500% | 101 to 500% | 1 to 100% | 101 to 500% | – |
| CC(c1ccc(F)cc1)N1CCN(C(=O)c2ccc(NS(=O)(=O)c3cccc4cccnc34)cc2)[C@H](C)C1 (stereo partly drawn) | 101 to 500% | 101 to 500% | 101 to 500% | 101 to 500% | – |
| CC[C@H]1CN(Cc2ccc(F)cc2)CCN1C(=O)c1ccc(NS(=O)(=O)c2cccc3cccnc23)cc1 | 101 to 500% | 101 to 500% | 1 to 100% | 101 to 500% | – |
| CC(c1cc(F)cc(F)c1)N1CCN(C(=O)c2ccc(NS(=O)(=O)c3cccc4cccnc34)cc2)[C@H](C)C1 (stereo partly drawn) | 101 to 500% | 101 to 500% | 101 to 500% | 101 to 500% | – |
| CC[C@H]1CN(Cc2cc(F)cc(F)c2)CCN1C(=O)c1ccc(NS(=O)(=O)c2cccc3cccnc23)cc1 | 101 to 500% | 101 to 500% | 101 to 500% | 101 to 500% | – |
| C[C@H]1CN(Cc2cc(F)cc(F)c2F)CCN1C(=O)c1ccc(NS(=O)(=O)c2cccc3cccnc23)cc1 | 101 to 500% | 1 to 100% | 1 to 100% | 101 to 500% | – |
| C[C@H]1CN(Cc2ccc(Cl)c(F)c2)CCN1C(=O)c1ccc(NS(=O)(=O)c2cccc3cccnc23)cc1 | 101 to 500% | 101 to 500% | 101 to 500% | 1 to 100% | – |
| C[C@H]1CN(CC2CCOC2)CCN1C(=O)c1ccc(NS(=O)(=O)c2cccc3cccnc23)cc1 (stereo partly drawn) | 101 to 500% | 1 to 100% | 101 to 500% | 1 to 100% | – |
| C[C@H]1CN(CC2CCCC2)CCN1C(=O)c1ccc(NS(=O)(=O)c2cccc3cccnc23)cc1 | 101 to 500% | 1 to 100% | 101 to 500% | 101 to 500% | – |
| C[C@H]1CN(Cc2c(F)ccc(F)c2F)CCN1C(=O)c1ccc(NS(=O)(=O)c2cccc3cccnc23)cc1 | 101 to 500% | 1 to 100% | 1 to 100% | 101 to 500% | – |
| C[C@H]1CN(Cc2cc(F)cc(F)c2)CCN1C(=O)c1ccc(NS(=O)(=O)c2cccc3cccnc23)cc1 | 101 to 500% | 1 to 100% | 101 to 500% | 101 to 500% | – |
| C[C@H]1CN(Cc2ccc(F)c(F)c2F)CCN1C(=O)c1ccc(NS(=O)(=O)c2cccc3cccnc23)cc1 [drawing 66] | 1 to 100% | – | 1 to 100% | 1 to 100% | A (a % activation at 1 μM of from 1 to 100) |
